The nature of data set [1]: In vivo pharmacokinetic analyses in rat, oral dosing. To be noted: serum, PO dosing 5 mg/kg. Here is the method: One rat is dosed orally (5 mg/kg—dissolved in DMSO/H2O/propylenglycol [1:5:4]) and blood samples are taken from the sublingual venous plexus at 30 min, 1 h, 2 h, 4 h and 6 h. Blood samples are taken in BD Vacutainer SST serum separation tubes, serum is isolated by centrifugation, transferred to micronics tubes and subsequently analysed.
Mass spectrometer (API5000 series) parameters are optimised to analyse for the specific compounds and test injections are performed to confirm the validity of the established generic chromatography method. The generic method is based on fast gradient (2.5 min) analysis on C18 column with mobile phases consisting methanol, ammonium acetate, formic acid and water.
Standards are prepared in rat serum to cover the analytical range 0.1 to 300 ng/ml. Standards, blank serum and study samples are applied to 96 deepwell plate and proteins are precipitated by addition of acetonitrile containing internal standard. Samples are analysed on LC-MS/MS usually overnight. Integration and quantification is performed on ration between analyte and internal standard using Analyst software version 1.5. Pharmacokinetic parameters are calculated using a standardised Excel spreadsheet.
In vivo pharmacokinetic profile in rat of compound 101 disclosed in WO 2008/104175 and compound 105 and 106 disclosed in examples 5 and 6, respectively: […]

Data set [2] deals with Human recombinant PDE4 (Genbank accession no NM_006203) (Homo sapiens (Human), UniProt Q08499). The data set is described as follows: PDE4 Assay (SPA, cAMP cleavage). The format is biochemical. The following applies: human recombinant PDE4, 1 hour incubation, cAMP 1x10-5 M. Here is the method: At the end of the incubation, the cleavage of the substrate was evaluated by the binding of the AMP product to SPA beads, which generate chemoluminescence when bound to the radioactive tracer. The AMP product inhibited the binding of the radioactive tracer to the beads, and the luminescent signal was competed.
The results were calculated as the molar concentrations resulting in 50% inhibition of the substrate cleavage compared to controls samples, and are expressed as IC50 (M).

The text below walks through data of patent US9637499B2, “Benzodioxole or benzodioxepine heterocyclic compounds as phosphodiesterase inhibitors” (LEO PHARMA A/S, priority 2010, dated 2017).

Sequence of Human recombinant PDE4 (Genbank accession no NM_006203) (Q08499 other isoform, or with tags, fused parts or gaps): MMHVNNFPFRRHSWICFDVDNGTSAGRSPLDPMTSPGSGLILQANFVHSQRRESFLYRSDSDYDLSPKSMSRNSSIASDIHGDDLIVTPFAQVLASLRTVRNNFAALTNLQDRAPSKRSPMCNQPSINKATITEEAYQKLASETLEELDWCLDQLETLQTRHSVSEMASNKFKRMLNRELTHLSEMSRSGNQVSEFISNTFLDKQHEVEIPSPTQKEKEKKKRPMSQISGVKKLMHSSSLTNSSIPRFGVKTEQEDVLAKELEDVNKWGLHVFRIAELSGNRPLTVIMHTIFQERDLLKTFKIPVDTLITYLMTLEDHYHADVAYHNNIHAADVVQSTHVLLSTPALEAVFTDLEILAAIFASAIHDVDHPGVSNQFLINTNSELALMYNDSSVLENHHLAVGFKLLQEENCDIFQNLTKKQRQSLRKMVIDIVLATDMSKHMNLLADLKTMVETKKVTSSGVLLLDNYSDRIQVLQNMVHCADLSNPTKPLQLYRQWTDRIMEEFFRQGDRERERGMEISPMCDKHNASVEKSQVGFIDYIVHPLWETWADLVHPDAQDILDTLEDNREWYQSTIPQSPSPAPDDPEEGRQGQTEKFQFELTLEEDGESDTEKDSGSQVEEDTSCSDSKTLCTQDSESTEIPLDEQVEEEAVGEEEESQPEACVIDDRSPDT

In turn, `O=C(Cc1c(Cl)c[n+]([O-])cc1Cl)c1ccc(OC(F)F)c2c1OC1(CCOCC1)O2` [compound 106, 2-(3,5-Dichloro-1-oxido-pyridine-4-yl)-1-(7-difluoromethoxy-2′,3′,5′,6′-tetrahydro-spiro[1,3-benzodioxole-2,4′-(4H)-pyran]-4-yl)ethanone] showed a bioavailability in data set [1] of 22%.

Regarding `O=C(Nc1c(Cl)c[n+](O)cc1Cl)c1ccc(OC(F)F)c2c1OC1(CCS(=O)(=O)CC1)O2` [compound 111, N-(3,5-dichloro-1-oxo-4-pyridyl)-7-(difluoromethoxy)-1′,1′-dioxo-spiro[1,3-benzodioxole-2,4′-thiane]-4-carboxamide], the IC50 in data set [2] was 106 nM.

One may read the bioavailability as dose-corrected exposure relative to a reference, in per cent. What is called IC50 is the concentration at which inhibition is half-maximal.
